Results on 3 compounds are retold here after paper doi:10.1101/2024.08.13.607785v1 (biorxiv, 2024).

The target of experiment [1] is T1, Discoidin domain-containing receptor 2 ; DDR2 ; Q16832 (Homo sapiens, UniProt Q16832).
T1 sequence (Q16832 1-855): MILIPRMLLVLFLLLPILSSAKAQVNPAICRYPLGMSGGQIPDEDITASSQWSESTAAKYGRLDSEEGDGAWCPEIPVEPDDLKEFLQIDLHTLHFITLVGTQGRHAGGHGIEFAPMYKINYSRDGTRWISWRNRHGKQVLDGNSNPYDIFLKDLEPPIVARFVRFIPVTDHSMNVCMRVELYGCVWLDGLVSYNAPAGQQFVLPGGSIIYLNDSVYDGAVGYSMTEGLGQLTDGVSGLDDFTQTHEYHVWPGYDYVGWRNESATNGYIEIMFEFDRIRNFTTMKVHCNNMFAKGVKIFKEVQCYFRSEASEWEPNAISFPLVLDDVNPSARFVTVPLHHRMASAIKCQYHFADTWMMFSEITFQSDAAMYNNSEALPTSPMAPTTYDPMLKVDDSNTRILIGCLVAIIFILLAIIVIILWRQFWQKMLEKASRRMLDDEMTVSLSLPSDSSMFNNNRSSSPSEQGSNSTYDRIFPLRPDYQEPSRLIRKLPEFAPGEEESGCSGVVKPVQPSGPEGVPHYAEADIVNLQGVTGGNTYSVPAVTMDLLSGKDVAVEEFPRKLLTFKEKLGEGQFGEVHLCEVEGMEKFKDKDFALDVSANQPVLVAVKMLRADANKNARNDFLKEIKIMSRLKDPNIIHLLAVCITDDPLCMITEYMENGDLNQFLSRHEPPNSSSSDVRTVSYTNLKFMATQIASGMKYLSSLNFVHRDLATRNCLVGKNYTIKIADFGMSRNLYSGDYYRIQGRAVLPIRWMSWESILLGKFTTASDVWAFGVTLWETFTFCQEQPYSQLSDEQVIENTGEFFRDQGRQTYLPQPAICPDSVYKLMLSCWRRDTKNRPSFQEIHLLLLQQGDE
Further details: species or system mixed lysate of K562, MV4-11, THP-1, NCI-H1155. Conditions: binder.

Experiment [2] addresses Isoform 3 of Serine/threonine-protein kinase SIK3 ; SIK3-7 ; Q9Y2K2-7 (Homo sapiens, UniProt Q9Y2K2). Further details: species or system mixed lysate of K562, MV4-11, THP-1, NCI-H1155. Conditions: DDA-MS residual binding; binder.
Experiment [3] deals with LIM domain kinase 1 ; LIMK1 ; P53667 (Homo sapiens, UniProt P53667). The arrangement: species or system mixed lysate of K562, MV4-11, THP-1, NCI-H1155. Conditions: DDA-MS residual binding; binder.
LIM domain kinase 1 ; LIMK1 ; P53667, sequence (P53667 whole entry, the tested form may be a part): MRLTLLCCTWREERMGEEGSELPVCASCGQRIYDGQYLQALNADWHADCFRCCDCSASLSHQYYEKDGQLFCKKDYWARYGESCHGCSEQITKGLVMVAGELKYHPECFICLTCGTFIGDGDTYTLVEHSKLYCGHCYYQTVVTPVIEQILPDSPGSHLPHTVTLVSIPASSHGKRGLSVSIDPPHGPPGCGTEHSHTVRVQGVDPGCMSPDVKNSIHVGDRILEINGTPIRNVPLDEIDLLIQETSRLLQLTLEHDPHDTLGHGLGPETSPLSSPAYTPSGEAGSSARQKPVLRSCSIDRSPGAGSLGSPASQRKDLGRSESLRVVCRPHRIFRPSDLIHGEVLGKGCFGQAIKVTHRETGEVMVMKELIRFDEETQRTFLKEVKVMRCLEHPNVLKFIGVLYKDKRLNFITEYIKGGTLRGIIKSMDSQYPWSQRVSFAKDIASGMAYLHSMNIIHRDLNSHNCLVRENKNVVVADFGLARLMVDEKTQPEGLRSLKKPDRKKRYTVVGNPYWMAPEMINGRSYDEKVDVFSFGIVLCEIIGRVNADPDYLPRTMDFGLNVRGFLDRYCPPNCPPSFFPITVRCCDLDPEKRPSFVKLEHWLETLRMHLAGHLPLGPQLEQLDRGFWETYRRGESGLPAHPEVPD
Experiment [4] has as its target Mitogen-activated protein kinase 14 ; MAPK14-2 ; Q16539-2 (Homo sapiens, UniProt Q16539). Further details: species or system mixed lysate of K562, MV4-11, THP-1, NCI-H1155. The note with it: DDA-MS residual binding; binder.
Experiment [5] addresses Tyrosine-protein kinase HCK ; HCK ; P08631 (Homo sapiens, UniProt P08631). Further details: species or system mixed lysate of K562, MV4-11, THP-1, NCI-H1155. The note with it: DDA-MS residual binding; binder.
For experiment [6], the target named is T2, Tyrosine-protein kinase Tec ; TEC ; P42680 (Homo sapiens, UniProt P42680).
T2 sequence (P42680 1-631): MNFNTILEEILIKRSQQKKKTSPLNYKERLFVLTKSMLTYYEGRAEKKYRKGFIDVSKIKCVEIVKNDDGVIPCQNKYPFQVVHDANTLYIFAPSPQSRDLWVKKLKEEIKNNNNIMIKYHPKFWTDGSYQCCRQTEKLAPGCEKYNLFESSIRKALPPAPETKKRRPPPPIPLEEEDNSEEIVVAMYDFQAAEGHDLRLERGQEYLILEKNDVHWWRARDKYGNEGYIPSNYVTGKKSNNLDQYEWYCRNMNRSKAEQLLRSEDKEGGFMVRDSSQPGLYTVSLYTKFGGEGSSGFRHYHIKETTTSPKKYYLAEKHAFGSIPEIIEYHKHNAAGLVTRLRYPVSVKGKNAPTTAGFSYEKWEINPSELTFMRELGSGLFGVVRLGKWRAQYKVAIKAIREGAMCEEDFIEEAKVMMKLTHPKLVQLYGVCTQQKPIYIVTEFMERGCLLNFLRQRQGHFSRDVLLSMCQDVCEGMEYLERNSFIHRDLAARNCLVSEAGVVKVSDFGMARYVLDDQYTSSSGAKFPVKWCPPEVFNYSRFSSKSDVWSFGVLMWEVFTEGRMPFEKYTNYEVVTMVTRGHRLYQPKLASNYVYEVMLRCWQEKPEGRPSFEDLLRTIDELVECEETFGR
Further details: species or system mixed lysate of K562, MV4-11, THP-1, NCI-H1155. Conditions: binder.

Experiment [7] concerns the target Tyrosine-protein kinase Yes ; YES1 ; P07947 (Homo sapiens, UniProt P07947). Further details: species or system mixed lysate of K562, MV4-11, THP-1, NCI-H1155. Conditions: binder.
The target in experiment [8] is Cyclin-dependent kinase 1 ; CDK1 ; P06493 (Homo sapiens, UniProt P06493). In words: biochemical. Further details: species or system human cell line lysate.
Cyclin-dependent kinase 1 ; CDK1 ; P06493, sequence (P06493 whole entry, one chain of several): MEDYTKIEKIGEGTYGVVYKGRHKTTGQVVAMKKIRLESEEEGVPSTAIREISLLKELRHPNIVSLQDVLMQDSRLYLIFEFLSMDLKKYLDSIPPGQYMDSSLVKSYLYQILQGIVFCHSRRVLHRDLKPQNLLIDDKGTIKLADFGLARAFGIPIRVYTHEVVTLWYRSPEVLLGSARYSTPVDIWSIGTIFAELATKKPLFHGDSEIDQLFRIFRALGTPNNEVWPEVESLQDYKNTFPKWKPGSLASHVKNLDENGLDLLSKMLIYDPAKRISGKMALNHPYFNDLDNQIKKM
For experiment [9], the target named is Cyclin-dependent kinase 6 ; CDK6 ; Q00534 (Homo sapiens, UniProt Q00534). In words: biochemical. Further details: species or system human cell line lysate.
Cyclin-dependent kinase 6 ; CDK6 ; Q00534, sequence (Q00534 whole entry, one chain of several): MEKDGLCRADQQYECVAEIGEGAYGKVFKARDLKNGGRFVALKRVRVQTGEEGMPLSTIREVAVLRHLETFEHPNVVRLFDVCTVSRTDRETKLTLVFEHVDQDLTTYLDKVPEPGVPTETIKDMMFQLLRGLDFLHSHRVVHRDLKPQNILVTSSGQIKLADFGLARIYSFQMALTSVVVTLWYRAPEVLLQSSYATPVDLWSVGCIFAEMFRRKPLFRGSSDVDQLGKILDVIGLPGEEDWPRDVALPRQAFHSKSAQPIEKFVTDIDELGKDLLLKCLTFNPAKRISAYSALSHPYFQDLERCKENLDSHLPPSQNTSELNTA
Experiment [10] concerns the target Cyclin-dependent kinase 7 ; CDK7 ; P50613 (Homo sapiens, UniProt P50613). Nature of the experiment: biochemical. Further details: species or system human cell line lysate.
The target in experiment [11] is Calcium/calmodulin-dependent protein kinase kinase 2 ; CAMKK2 ; Q96RR4 (Homo sapiens, UniProt Q96RR4). Nature of the experiment: biochemical. The arrangement: species or system human cell line lysate.
Calcium/calmodulin-dependent protein kinase kinase 2 ; CAMKK2 ; Q96RR4, sequence (Q96RR4 whole entry, canonical isoform, one chain of several): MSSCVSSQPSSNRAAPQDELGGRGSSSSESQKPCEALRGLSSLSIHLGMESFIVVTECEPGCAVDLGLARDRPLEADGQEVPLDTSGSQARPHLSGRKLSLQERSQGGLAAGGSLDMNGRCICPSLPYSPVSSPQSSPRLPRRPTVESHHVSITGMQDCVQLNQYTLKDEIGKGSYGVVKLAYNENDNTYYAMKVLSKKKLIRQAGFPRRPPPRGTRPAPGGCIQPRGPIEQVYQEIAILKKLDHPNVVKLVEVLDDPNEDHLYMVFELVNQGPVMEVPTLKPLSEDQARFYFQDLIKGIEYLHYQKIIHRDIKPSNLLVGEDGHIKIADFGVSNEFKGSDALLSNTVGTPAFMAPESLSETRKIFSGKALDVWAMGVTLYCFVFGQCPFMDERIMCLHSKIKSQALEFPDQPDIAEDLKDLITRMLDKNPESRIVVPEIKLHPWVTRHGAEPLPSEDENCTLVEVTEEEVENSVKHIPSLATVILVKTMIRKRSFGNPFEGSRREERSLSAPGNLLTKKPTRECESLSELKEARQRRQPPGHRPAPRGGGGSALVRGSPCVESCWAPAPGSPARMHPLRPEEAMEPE
Experiment [12] concerns the target Isoform 2 of Cyclin-dependent kinase 17 ; CDK17 ; Q00537-2 (Homo sapiens, UniProt Q00537). Nature of the experiment: biochemical. The arrangement: species or system human cell line lysate.

Tyrosine-protein kinase Yes ; YES1 ; P07947, sequence (P07947 whole entry): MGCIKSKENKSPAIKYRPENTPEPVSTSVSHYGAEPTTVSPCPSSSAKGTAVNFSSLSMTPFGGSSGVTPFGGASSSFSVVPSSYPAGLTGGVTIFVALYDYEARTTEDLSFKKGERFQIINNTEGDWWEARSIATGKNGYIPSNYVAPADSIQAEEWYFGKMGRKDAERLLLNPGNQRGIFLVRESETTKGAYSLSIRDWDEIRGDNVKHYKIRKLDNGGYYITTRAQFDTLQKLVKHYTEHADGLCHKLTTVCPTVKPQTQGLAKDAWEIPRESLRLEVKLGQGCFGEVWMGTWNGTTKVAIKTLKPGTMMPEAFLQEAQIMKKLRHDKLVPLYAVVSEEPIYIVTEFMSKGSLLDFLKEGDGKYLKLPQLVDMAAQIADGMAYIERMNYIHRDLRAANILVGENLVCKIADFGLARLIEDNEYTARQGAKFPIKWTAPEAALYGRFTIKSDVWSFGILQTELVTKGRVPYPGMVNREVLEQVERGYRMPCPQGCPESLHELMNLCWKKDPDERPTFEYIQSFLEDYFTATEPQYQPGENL
Tyrosine-protein kinase HCK ; HCK ; P08631, sequence (P08631 whole entry): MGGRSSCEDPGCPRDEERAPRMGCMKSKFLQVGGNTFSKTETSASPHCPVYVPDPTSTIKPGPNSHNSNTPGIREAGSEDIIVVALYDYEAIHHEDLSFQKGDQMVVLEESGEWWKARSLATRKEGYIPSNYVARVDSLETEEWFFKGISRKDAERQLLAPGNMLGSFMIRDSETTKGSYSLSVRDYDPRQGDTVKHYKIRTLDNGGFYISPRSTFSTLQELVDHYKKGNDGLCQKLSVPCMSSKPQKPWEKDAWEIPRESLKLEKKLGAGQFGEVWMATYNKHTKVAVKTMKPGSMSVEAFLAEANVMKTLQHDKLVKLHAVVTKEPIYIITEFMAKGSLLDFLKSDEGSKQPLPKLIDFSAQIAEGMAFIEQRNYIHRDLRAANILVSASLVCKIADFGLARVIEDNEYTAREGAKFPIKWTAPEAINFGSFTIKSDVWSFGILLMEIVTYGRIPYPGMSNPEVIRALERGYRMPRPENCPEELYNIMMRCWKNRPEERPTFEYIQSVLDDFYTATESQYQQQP
Isoform 2 of Cyclin-dependent kinase 17 ; CDK17 ; Q00537-2, sequence (Q00537 whole entry, canonical isoform, one chain of several): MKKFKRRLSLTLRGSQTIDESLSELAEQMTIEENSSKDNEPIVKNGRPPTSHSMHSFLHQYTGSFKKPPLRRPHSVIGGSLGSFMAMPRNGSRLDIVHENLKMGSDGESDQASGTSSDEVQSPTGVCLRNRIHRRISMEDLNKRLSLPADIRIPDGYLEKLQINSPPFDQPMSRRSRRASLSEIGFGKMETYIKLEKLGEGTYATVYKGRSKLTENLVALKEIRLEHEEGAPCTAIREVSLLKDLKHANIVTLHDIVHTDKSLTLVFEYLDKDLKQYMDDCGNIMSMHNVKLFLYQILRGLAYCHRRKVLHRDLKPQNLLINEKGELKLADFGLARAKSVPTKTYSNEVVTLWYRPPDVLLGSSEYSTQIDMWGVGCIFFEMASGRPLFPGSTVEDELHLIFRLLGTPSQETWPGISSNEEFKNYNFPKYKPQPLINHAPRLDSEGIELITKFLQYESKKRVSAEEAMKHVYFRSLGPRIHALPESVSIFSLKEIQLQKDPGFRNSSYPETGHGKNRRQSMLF
Cyclin-dependent kinase 7 ; CDK7 ; P50613, sequence (P50613 whole entry, one chain of several): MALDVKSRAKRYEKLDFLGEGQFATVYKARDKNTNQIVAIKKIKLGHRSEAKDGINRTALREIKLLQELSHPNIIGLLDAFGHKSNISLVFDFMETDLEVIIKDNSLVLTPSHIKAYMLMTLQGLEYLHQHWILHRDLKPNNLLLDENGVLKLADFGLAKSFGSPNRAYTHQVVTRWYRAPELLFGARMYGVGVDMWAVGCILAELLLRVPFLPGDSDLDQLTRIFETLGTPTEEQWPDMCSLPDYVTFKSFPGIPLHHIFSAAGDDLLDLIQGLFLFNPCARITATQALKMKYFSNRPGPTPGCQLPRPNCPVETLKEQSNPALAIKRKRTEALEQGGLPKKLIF
Mitogen-activated protein kinase 14 ; MAPK14-2 ; Q16539-2, sequence (Q16539 whole entry): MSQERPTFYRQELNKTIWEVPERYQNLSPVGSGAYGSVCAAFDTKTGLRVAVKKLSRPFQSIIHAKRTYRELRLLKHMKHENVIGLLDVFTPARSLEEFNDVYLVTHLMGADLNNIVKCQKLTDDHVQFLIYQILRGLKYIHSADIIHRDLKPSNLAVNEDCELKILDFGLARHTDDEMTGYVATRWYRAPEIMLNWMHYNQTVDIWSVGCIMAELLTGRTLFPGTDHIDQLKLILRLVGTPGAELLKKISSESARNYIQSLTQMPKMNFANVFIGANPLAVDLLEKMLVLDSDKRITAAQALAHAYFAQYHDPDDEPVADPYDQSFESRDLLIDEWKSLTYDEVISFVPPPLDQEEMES

As for `Cc1nc(Nc2ncc(C(=O)Nc3c(C)cccc3Cl)s2)cc(N2CCN(CCO)CC2)n1` [dasatinib], the “DDA-MS / % Intensity (30 µM/DMSO)” value in [1] was 10.23%; in experiment [2], 6.597%; in experiment [3], 23.79%; in experiment [4], 29.04%; in experiment [5], 2.041%; in experiment [6] it was 2.183%. Also, the “DDA-MS / % Intensity (30 µM/DMSO)” value in experiment [7] was determined as 0.4709%.

In the case of `COc1cc(F)ccc1-c1cc(Nc2cc(CS(C)(=N)=O)ccn2)ncc1F` (stereo not drawn) [BAY-1251152], the IC50 in experiment [8], in experiment [9] and in experiment [10] was greater than 10 µM throughout.

On to `COc1cc(F)ccc1-c1ncnc(Nc2cccc(C[S@](C)(=N)=O)c2)n1` [BAY-1143572], for which the concentration for half-maximal inhibition (IC50) in [11] and in [12] was greater than 10 µM each time.
